Key:
Format in all cases: ADME, organism-based
[1] = AUC (0 to infinity) in rat at 1 mg/kg, iv; set-up: time infinity, dose 1 mg/kg, route intravenous; settings: plasma
[2] = Clearance in rat at 1 mg/kg, iv; set-up: dose 1 mg/kg, route intravenous; settings: in vivo
[3] = Oral bioavailability in rat at 5 mg/kg, po; settings: in vivo
[4] = Half life in rat at 1 mg/kg, iv; set-up: dose 1 mg/kg, route intravenous; settings: in vivo
[5] = AUC (0 to infinity) in rat at 5 mg/kg, po; set-up: time infinity, dose 5 mg/kg, route oral; settings: plasma

CNC(=O)c1cccc(F)c1Nc1nc(Nc2ccc3c(c2)NC(=O)CCC3)ncc1Cl
AUC(0-inf) [1]: 1.26 µg·h/mL
clearance [2]: 0.9 L/h/kg
bioavailability [3]: 8%
half-life [4]: 42 min
AUC(0-inf) [5]: 0.592 µg·h/mL

Source: ChEMBL document CHEMBL1641548, “Fused bicyclic derivatives of 2,4-diaminopyrimidine as c-Met inhibitors” (Bioorg Med Chem Lett, 2011)
